Active and inactive are the calls of the source.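 Rule for the calls: active = compounds giving half or more protection of infected cells from virus-caused growth loss, again on retest; inactive = the rest.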 Where a SMILES comes first, the peptide text is derived from it. The star is where a group is joined. Boc = CC(C)(C)OC(=O)*; OBn = c1ccc(CO*)cc1
Tested on: CEM cells HIV-1 protection, formazan growth assay
Assay: NCI AIDS Antiviral Assay
Settings: for IC50: measured here: growth of uninfected CEM cells
Outline: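 CEM (human) cells, HIV-1 infected vs uninfected, 5-point dosing, formazan growth read-out. Retest threshold 50% protection.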

Compound: Nc1nnc(Sc2ccc([N+](=O)[O-])cc2)s1
- EC50: > 195 µM
- IC50: 11.7 µM

Compound: N#Cc1c(SCc2ccccc2)nc(-c2ccccc2)[nH]c1=S
- EC50: > 151 µM
- IC50: 19.5 µM

Compound: CCCCCN(CCCCC)CC(=O)OCC1(C)CCCC2(C)C3CCC(C(C)C)=CC3=CCC12 (stereo unspecified)
- EC50: > 200 µM
- IC50: 35.5 µM

Compound: O=C(/C=C/c1ccc(Cl)c(Cl)c1)Oc1ccc(/C=C2\CCCCC2=O)cc1
- EC50: > 100 µM
- IC50: 5.25 µM

Compound: COC(CNC(=O)CNC(=O)c1ccc(C(F)(F)F)cc1)OC
- outcome: inactive

Compound: O=C(Nc1nc(=S)[nH][nH]1)C(=O)C1C(=O)Nc2ccccc2S1=O (stereo unspecified)
- EC50: > 372 µM
- IC50: > 372 µM

Compound: Nc1c(O)c(S(=O)(=O)O)c(O)c2c1C(=O)c1ccccc1C2=O
- EC50: 200 µM
- IC50: 234 µM

Compound: CC(=O)Oc1c(Br)ccc2cc(C(Br)Br)c(C(=O)c3ccccc3)nc12
- EC50: > 5.01 µM
- IC50: > 5.01 µM

Compound: CC(NC(=O)c1ccccc1)NC(=O)C(C)C(=O)Nc1ccccc1 (stereo unspecified)
- outcome: inactive

Compound: O=c1nc(NC(c2ccccc2)(c2ccccc2)c2ccccc2)ccn1CCNCCn1ccc(NC(c2ccccc2)(c2ccccc2)c2ccccc2)nc1=O
- EC50: > 9.33 µM
- IC50: > 9.33 µM

Compound: O=[N+]([O-])c1ccc(Sc2c3ccccc3nc3ccccc23)nc1
- EC50: > 200 µM
- IC50: 5.25 µM

Compound: CC(=O)OC1CC2C(C)(C)C(=O)C=C[C@]2(C)C2CCC3(C)C(=CC(=O)C3c3ccoc3)[C@]12C (stereo partly specified)
- EC50: > 22.4 µM
- outcome: inactive
- IC50: 14.1 µM

Compound: CC1(CO)C(O)CCC2(C)C1CCC1CC3CC12CCC3(O)CO (stereo unspecified)
- EC50: > 275 µM
- IC50: 0.398 µM

Compound: CN(NC(=O)/C(=C/c1c(O)ccc2ccccc12)NC(=O)c1ccccc1)c1cn[nH]c(=O)c1Cl
- EC50: > 200 µM
- IC50: > 200 µM

Compound: NC(=S)Nc1ccc2c(c1)oc1ccccc12
- EC50: > 200 µM
- IC50: > 200 µM

Compound: O=C1CCC2(c3ccc(F)cc3)Nc3ccc(Cl)cc3N12 (stereo unspecified)
- EC50: > 61.7 µM
- IC50: 45.7 µM

Compound: C/C(CC(O)(C(F)(F)Cl)C(F)(F)Cl)=N\Nc1ccccc1
- EC50: > 200 µM
- IC50: 52.5 µM

Compound: CC(=C/c1ccccc1)/C=C1/NC(=S)NC1=O
- EC50: > 200 µM
- IC50: > 200 µM

Compound: O=C(/C=C(\O)C(=O)O)/C=C(\O)c1ccccc1Cl
- EC50: 389 µM
- IC50: 589 µM

Compound: CCCCCCCCCOC(=S)NC
- outcome: inactive

Compound: O=C(/C=C/c1ccccc1Cl)c1ccccc1
- EC50: > 21.4 µM
- IC50: 14.5 µM

Compound: CC1(C(=O)O)CCC[C@@]2(C)C1CC[C@@]1(C)c3cocc3CCC21 (stereo partly specified)
- outcome: inactive

Compound: COc1ccc(Nc2cc[nH]c(=O)c2NC(C)=O)cc1
- EC50: > 479 µM
- IC50: > 479 µM

Compound: CC(=O)Nc1cc(=O)[nH]c2c1CCC2
- outcome: inactive

Compound: O=CNc1ccccc1OCCOc1ccccc1NC=O
- EC50: > 200 µM
- IC50: > 200 µM

Compound: CC1CC(N)=C(C#N)C1(C#N)C#N (stereo unspecified)
- EC50: > 200 µM
- IC50: 138 µM

Compound: Cc1c(-c2ccccc2)c(=O)oc2c3c(ccc12)OC(C)(C)[C@H](OC(=O)C12CCC(C)(C(=O)O1)C2(C)C)[C@@H]3OC(=O)C12CCC(C)(C(=O)O1)C2(C)C (stereo partly specified)
- EC50: > 100 µM
- IC50: > 100 µM

Compound: Nc1cc(I)c2cccnc2c1O
- EC50: > 209 µM
- IC50: 1.26 µM

Compound: COC(C(=O)[O][Ge]([CH3])([CH3])[CH3])c1ccccc1 (stereo unspecified)
- EC50: > 251 µM
- IC50: > 251 µM

Compound: c1ccc2c(c1)Cc1ccccc1-c1c-2[nH]c2ccccc12
- EC50: > 200 µM
- IC50: 10.5 µM

Compound: Cn1cnc([N+](=O)[O-])c1Sc1ccccc1C(=O)O
- EC50: > 339 µM
- IC50: > 339 µM

Compound: O=C(O)CN(CC(=O)O)CC(O)CN(CC(=O)O)CC(=O)O
- EC50: > 200 µM
- IC50: 69.2 µM

Compound: O=c1oc2c3ccc4ccccc4c3n(CCCN3CCCCC3)c2c2ccccc12
- EC50: > 16.2 µM
- IC50: 7.76 µM

Compound: O=C(c1cc(=O)c2ccc(O)cc2o1)c1ccc(Cl)cc1Cl
- EC50: > 204 µM
- IC50: 18.6 µM

Compound: COc1cc(CC2C(=O)OCC2[C@@H](OC(C)=O)c2ccc3c(c2)OCO3)c(Br)c(OC)c1OC (stereo partly specified)
- EC50: > 50.1 µM
- IC50: 43.7 µM

Compound: O=[N+]([O-])c1cccnc1NCC1(CO)CCCC1
- EC50: > 200 µM
- IC50: 46.8 µM

Compound: CC(O)(C#N)CC(O)(C(F)(F)Cl)C(F)(F)Cl (stereo unspecified)
- EC50: 195 µM
- IC50: > 200 µM

Compound: Nc1nccc(CC(O)(c2ccccc2)c2ccccc2)n1
- EC50: > 64.6 µM
- IC50: > 64.6 µM

Compound: COc1ccc(-c2cc(-c3cc(C)cc(Cl)c3O)nc3[nH]c(=S)[nH]c(=S)c23)cc1
- EC50: > 200 µM
- IC50: 4.17 µM

Compound: CC(=O)c1c2c(cc3c1CC1(Cc4ccccc4C1=O)C3)CCC2 (stereo unspecified)
- EC50: > 200 µM
- IC50: 17.8 µM

Compound: O=CC[C@@]12CC(=O)OC(C1)[C@@H](I)CC21OCCO1
- EC50: > 200 µM
- IC50: > 200 µM

Compound: CC(C)(C)OC(=O)NC(Cc1ccccc1)C(=O)NC(Cc1ccccc1)C(=O)NCC(=O)OCc1ccccc1 (stereo not drawn) (Boc-Phe-Phe-Gly-OBn; configuration not given here)
- EC50: > 200 µM
- IC50: 11.5 µM

Compound: COc1ccc(/C=C(\C(C)=O)C(=O)Nc2ccccc2)cc1
- EC50: > 17.8 µM
- IC50: > 17.8 µM

Compound: CN(c1ccc(Cl)cc1)S(=O)(=O)c1cccc([N+](=O)[O-])c1
- EC50: > 200 µM

Compound: C/C(O)=C(\C=N/C(=S)Nc1ccccc1)C(=O)Nc1ccccc1
- EC50: > 200 µM
- IC50: > 200 µM

Compound: CCc1c(Cc2cc(C)cc(C)c2)n(COCCC[Se]c2ccccc2)c(=O)[nH]c1=O
- EC50: 0.407 µM
- IC50: 12 µM

Compound: OC1C(CBr)OC(OC[C@H](COCc2ccccc2)OCc2ccccc2)C(O)C1O (stereo partly specified)
- EC50: > 214 µM
- IC50: > 100 µM

Compound: O=c1cc(-c2ccccc2)oc2cc(O)c(O)c(O)c12
- EC50: > 200 µM
- IC50: 22.4 µM

Compound: COc1ccc2nc3ccc(OC)cc3c(SCc3ccccc3)c2c1
- EC50: > 200 µM
- IC50: > 100 µM

Compound: O=[N+]([O-])c1cccc(C2=NOC3CCCC23)c1 (stereo unspecified)
- outcome: inactive

Compound: NC(=O)N/N=C1\CC2C3CC4C2C4C13 (stereo unspecified)
- EC50: > 200 µM
- IC50: > 200 µM

Compound: O=S(=O)(F)c1ccc(C[P+](c2ccccc2)(c2ccccc2)c2ccccc2)c(Cl)c1
- EC50: > 200 µM
- IC50: 45.7 µM

Compound: Cn1c(=O)c2nc(NCC3CCCCC3)sc2n(C)c1=O
- EC50: > 107 µM
- IC50: 102 µM

Compound: N/N=C1\c2ccccc2C2/C(=N\N)c3ccccc3C12 (stereo unspecified)
- outcome: inactive

Compound: CC(=O)Nc1cccc(C[P+](c2ccccc2)(c2ccccc2)c2ccccc2)c1
- EC50: > 200 µM
- IC50: 91.2 µM

Compound: COC(=O)c1cc(C(=O)OC)c(C/C(=N/NC(N)=S)C(=O)Nc2ccc(Cl)c(Cl)c2)nc1C/C(=N/NC(N)=S)C(=O)Nc1ccc(Cl)c(Cl)c1
- EC50: > 200 µM
- IC50: > 200 µM

Compound: CC(=O)Nc1ccc(C(=O)NN2C(=O)CSC2c2ccccc2)cc1 (stereo unspecified)
- EC50: > 72.4 µM
- IC50: > 72.4 µM

Compound: O=c1c(-c2ccc(O)cc2)coc2cc(O)cc(O)c12
- EC50: > 200 µM
- IC50: 5.62 µM

Compound: Cc1nnc2n1-c1ccc(Cl)cc1C(c1ccccc1)=[N+]([O-])C2
- EC50: > 398 µM
- IC50: 355 µM

Compound: O=C1OCC2=Nc3cccc4cccc(c34)N12
- EC50: > 0.676 µM
- IC50: 0.331 µM

Compound: CCCCCCCCCCCCC(C(=O)O)C(=O)O
- EC50: > 251 µM
- IC50: > 251 µM

Compound: COc1ccc(C2OC(=O)c3c2ccc2ccccc32)c(C)c1 (stereo unspecified)
- EC50: > 44.7 µM
- IC50: 27.5 µM

Compound: O=C1OC2(CCCCC2)c2ccccc21
- EC50: > 339 µM
- IC50: 186 µM

Compound: CN(NC(=O)CCCl)C1=NCCCCN1
- EC50: > 200 µM
- IC50: > 200 µM

Compound: CCOC(=O)C1C(c2ccccc2)C(C(=O)OCC)C(O)(C(F)(F)F)OC1(O)C(F)(F)F (stereo unspecified)
- outcome: inactive

Compound: O=C1CCC2CN3CCc4c([nH]c5ccccc45)C3CC2C1 (stereo unspecified)
- EC50: > 45.7 µM

Compound: O=[N+]([O-])c1ccc(CN(CCCl)OCCCl)cc1
- EC50: > 200 µM
- IC50: 37.2 µM

Compound: COc1ccc([C@H]2CC(=O)N3CCCC3N2)cc1 (stereo partly specified)
- EC50: > 200 µM
- IC50: > 200 µM

Compound: CC1(C)OCC2OC3([C@H](O)CCO)OC(C)(C)OC3C2O1 (stereo partly specified)
- EC50: > 200 µM
- IC50: > 200 µM

Compound: CCOC(=O)/C(=C\c1cccc(C)c1)C(C)=O
- EC50: > 407 µM
- IC50: 63.1 µM

Compound: CC(=O)/C(=C/N1CCNC1=S)C(=O)Nc1ccccc1C
- EC50: > 200 µM
- IC50: > 200 µM

Compound: COc1cc2c(cc1O)C(=O)OC1CC=C3CC[N@@+](C)([O-])[C@H]3C21 (stereo partly specified)
- EC50: > 195 µM
- IC50: > 195 µM

Compound: COC(=O)C(=O)C(C(C)=O)C(=O)NCc1ccccc1 (stereo unspecified)
- EC50: 47.9 µM
- IC50: 67.6 µM

Compound: CCc1cccc(C(C)C)c1NC(=O)/C(=N\NC(N)=O)C(C(=O)OC)c1cnc2ccccc2n1 (stereo unspecified)
- outcome: inactive

Compound: O=C1C=C2C(=CCOC2O)O1 (stereo unspecified)
- EC50: > 16.2 µM
- IC50: 0.191 µM

Compound: COC1/C=C/OC2(C)Oc3c(C)c(O)c4c(O)c(c(C=NN5C(C)CC(Cc6ccccc6)CC5C)c(O)c4c3C2=O)NC(=O)/C(C)=C/C=C/C(C)C(O)C(C)C(O)C(C)C(OC(C)=O)C1C (stereo unspecified)
- EC50: > 200 µM
- IC50: 8.71 µM

Compound: Cc1cscc(C)c1=S
- EC50: > 195 µM
- IC50: > 195 µM

Compound: Cc1nnc2scnn12
- outcome: inactive

Compound: COc1ccc(/C=C/c2ccc3ccccc3n2)c(OC)c1
- EC50: > 200 µM
- IC50: 12.3 µM

Compound: CN(C)Cc1cc(C(=O)/C=C/c2ccc(Cl)cc2)cc(CN(C)C)c1O
- EC50: > 200 µM
- IC50: 9.12 µM

Compound: Cc1cc(=O)cc2sc3cc(Cl)ccc3nc1-2
- EC50: > 10.5 µM
- IC50: > 10.5 µM

Compound: COC(=O)C1(C)C=C(Nc2ccccc2)C(=O)N1c1ccccc1 (stereo unspecified)
- EC50: > 6.17 µM
- IC50: > 6.17 µM

Compound: Cc1cc2cc3ccc4cccc5ccc(c2oc1=O)c3c45
- outcome: inactive

Compound: CC(C)(C)c1ccc(O)c(C(O)c2ccccn2)c1 (stereo unspecified)
- EC50: > 200 µM
- IC50: 81.3 µM

Compound: Cc1ccc(Nc2sc(C)cc2C#N)c([N+](=O)[O-])c1
- EC50: > 200 µM
- IC50: 178 µM

Compound: O=C(O)Cn1ccc(=O)c2ccc([N+](=O)[O-])cc21
- EC50: > 200 µM
- IC50: > 200 µM

Compound: CN(C)CCC(/C=C/c1ccccc1)=N\Nc1ccc(Cl)cc1Cl
- outcome: inactive

Compound: CN(C)CCNC(=O)c1cc([N+](=O)[O-])cn1C
- EC50: > 200 µM
- IC50: > 200 µM

Compound: O=C1SC(c2ccccc2)(c2ccccc2)c2ccccc21
- EC50: > 4.79 µM
- IC50: > 4.79 µM

Compound: O=Nc1c2cc3ccccc3[nH]c-2c2ccccc12
- EC50: > 40.7 µM
- IC50: 20.4 µM

Compound: S=c1nn[nH]n1-c1ccccc1.[Zn+2]
- EC50: > 2.57 µM
- IC50: > 2.57 µM

Compound: Cn1nc(Cc2ccc(Cl)cc2)n(N)c1=O
- EC50: > 200 µM
- IC50: > 200 µM
